Experimental data published in US20050112066A1, “Complexes of cyclic polyaza chelators with cations of alkaline earth metals for enhanced biological activity” (CONCAT LP, a California Limited Partnership, priority 2003, published 2005).
In brackets after ≈: the same amount, converted by molar mass. Where two headings read alike, the source gives them in different places.

How the values were obtained:
[1] = tested on: Corynebacterium Xerosis; experiment: minimum inhibitory concentration against skin bacteria; assay type: cell-based
Description: This effect is unexpected since the presence of cations other than those of first transition series elements would be expected to inhibit the rate and extent of complexation of the first transition series elements by both the cyclic and linear chelators, albeit to differing degrees.
Two chelators were compared in terms of their minimum inhibitory concentrations (MIC) against the common skin bacteria Corynebacterium Xerosis in media containing either 3.7 mg/L or 137 mg/L of Ca(II). The two chelators were N,N′,N″-tri(dihydroxyphosphoryl methyl)-1,4,7-triazacyclononane (within the scope of the present invention) and diethylene triamine pentaacetic acid (DTPA) (outside the scope of the present invention). The MIC for the triazacyclononane was 8 μg/mL in medium containing 3.7 mg/L of Ca(II), and 5 μg/mL in medium containing 137 mg/L of Ca(II).

[2] = tested on: Laboratory mice; experiment: acute in vivo toxicity, single intravenous dose to mice; settings: 3.0 mM/kg single intravenous dose
Description: This example illustrates the low in vivo toxicity of a representative example of the chelators of this invention upon administration to mice.
Laboratory mice were treated by the intravenous administration of 3.0 mM/kg intravenously of the sodium salt of N,N′,N″-tris(dihydroxyphosphoryl-methyl)-1,4,7-triazacyclononane as a single intravenous dose. […] This in vivo LD50 toxicity dose results in an instantaneous in vivo concentration which is orders of magnitude greater than the dose of this agent which inhibits mammalian cell replication in vitro (0.009 mM/L).

[3] = tested on: mammalian cell replication; experiment: inhibition of mammalian cell replication in vitro; assay type: cell-based
[4] = tested on: HFF (human foreskin fibroblasts); experiment: toxicity toward nonproliferating mammalian cells in vitro; assay type: cell-based; settings: 0.3 mM; mature, nonreplicating HFF cultures in maintenance media; five-day period of observation
Description: This example illustrates the relatively low toxicity of a representative example of the chelators of this invention toward nonproliferating mammalian cells in vitro.
To mature, nonreplicating cultures of HFF (human foreskin fibroblasts) kept in maintenance media was added N,N′,N″-tris(dihydroxyphosphorylmethyl)-1,4,7-triazacyclononane at a concentration of 0.3 mM. No effect on the resting cells was observed over a five-day period of observation.

[5] = tested on: Sprague Dawley rats; experiment: subacute toxicity, repeated intravenous doses to rats; assay type: in vivo; settings: 0.05 millimoles per kg i.v. on 10 days
Source text: Ten male Sprague Dawley rats 29 days old and weighing between 73.4 and 87.8 grams at the beginning of the experiment were randomized, employing the block stratification method, into two groups consisting of five rats each. On each of days 1, 2, 3, 6, 7, 8, 9, 10,13 and 14 of the experiment one set of rats received an intravenous dose of N,N′,N″-tri(dihydroxyphosphoryl methyl)-1,4,7-triazacyclononane equal to 0.05 millimoles per kg of initial body weight (experimental group) while the other group received an equivalent volume of normal saline solution. The weights of the animals were recorded three times per week and the animals were sacrificed on the 28th day, major organs removed and weighed and tissues removed for microscopic examination.

[6] = room temperature; cited from earlier work

`O=C(O)CN(CCN(CC(=O)O)CC(=O)O)CCN(CC(=O)O)CC(=O)O` [DTPA, diethylene triamine pentaacetic acid, reference compound] gave an MIC ([1]; medium containing 3.7 mg/L of Ca(II)) of 36 µg/mL (≈ 91.5 µM) and an MIC ([1]; medium containing 137 mg/L of Ca(II)) of 320 µg/mL (≈ 814 µM).

For `O=P([O-])([O-])CN1CCN(CP(=O)(O)O)CCN(CP(=O)(O)O)CC1.[Na+].[Na+]` [sodium salt of N,N′,N″-tris(dihydroxyphosphoryl-methyl)-1,4,7-triazacyclononane], the “mice surviving for over 14 days” value [2] was “Over 50%” and the “dose which inhibits mammalian cell replication in vitro” value [3] was 0.009 mM/L.

With `O=P(O)(O)CN1CCN(CP(=O)(O)O)CCN(CP(=O)(O)O)CC1` [N,N′,N″-Tris-(dihydroxyphosphorylmethyl)-1,4,7-triazacyclononane] the “effect on the resting cells” value [4] was “No effect”, the MIC ([1]; Corynebacterium xerosis, medium containing 3.7 mg/L of Ca(II), read-out: MIC) was 8 µg/mL (≈ 19.5 µM) and the MIC ([1]; Corynebacterium xerosis, medium containing 137 mg/L of Ca(II), read-out: MIC) was 5 µg/mL (≈ 12.2 µM). For the same compound, the “differences between tissues upon microscopic examination of major organs vs control group” value ([5]; necropsy on the 28th day) was “no differences”, the “difference in weight or rate of weight gain vs control group” value ([5]; period of injections and two-week post-injection period) was “no statistically significant difference” and the “differences in weights of major organs vs control group” value ([5]; sacrificed on the 28th day) was “no differences”. The “time to achieve equilibrium with the cations” value [6] was “many months”.
